# *1 amine or outer side, *2 acyl side, *3 side chain or, on linkers, in order; H or OH if unused. Where a SMILES comes first, the peptide text is derived from it. Side-chain parts run from the residue outwards. [ ]: non-standard residue; d: D form. LeuΨ(CH2N)Pro = CC(C)C[C@@H](CN1CCC[C@H]1C(=O)[*:2])N[*:1]; X1 = CC(C)C[C@@H](CN([C@H](C(=O)[*:2])C(C)C)[*:1])N[*:3]
# What was measured:
# HTLV-2 PR [1] = target: T1, HTLV-2 PR (Human T-cell leukemia virus 2, UniProt P03363); assay: biochemical
# Protocol: (§3) The reaction mixtures were prepared to contain 4.8 µL of substrate (in 0.40–0.43 mM final concentration), 0.2 µL of inhibitor, 5 µL of the enzyme, and 10 µL of a 2× incubation buffer. The substrates representing HTLV-2 and HTLV-3 MA/CA cleavage sites were used for HTLV-2 and HTLV-3 PRs, respectively. […] The inhibitors were dissolved in DMSO. Therefore, 0.2 µL of DMSO was added to the control samples.
# HTLV-3 PR [2] = target: T2, HTLV-3 PR (Human T-cell leukemia virus 3, UniProt Q4U0X6); assay: biochemical
# Protocol: as §3
# HTLV-1 PR [3] = assay: Inhibition study with HIV-1 PIs, HTLV-1 PR; assay type: biochemical, human T-cell leukemia virus type 1; conditions: inhibitor 1 µM final
# Protocol: (§1) The IB-268 (KTKVL-r-VVQPK) and IB-269 (APQVL-r-PVMHP) reduced peptide bond (-r-)-containing inhibitors, which were synthesized by Dr. Ivo Blaha (Ferring Leciva, Prague, Czech Republic).
# (§2) The reaction mixtures were prepared to contain 4.8 µL of substrate (in 0.40–0.43 mM final concentration), 0.2 µL of inhibitor, 5 µL of the enzyme, and 10 µL of a 2× incubation buffer. The substrates representing HTLV-2 and HTLV-3 MA/CA cleavage sites were used for HTLV-2 and HTLV-3 PRs, respectively. In the case of HIV-1 PIs, we applied 100 µM inhibitor stocks, while 0.5–100 µM stocks of IB-268 and IB-269 were used for screening. The inhibitors were dissolved in DMSO. Therefore, 0.2 µL of DMSO was added to the control samples.
# HTLV-2 PR [4] = target: T1, HTLV-2 PR; assay: Inhibition study with HIV-1 PIs, HTLV-2 PR; assay type: biochemical, human T-cell leukemia virus type 2; parameters: made in house; host or cells: E. coli BL21(DE3); conditions: inhibitor 1 µM final; for loss of activity: substrate HTLV-2 MA/CA 0.40–0.43 mM, DMSO control = 100%, n = 2
# Protocol: The inhibitors were dissolved in DMSO.
# HTLV-3 PR [5] = target: T2, HTLV-3 PR; assay: Inhibition study with HIV-1 PIs, HTLV-3 PR; assay type: biochemical; parameters: made in house; host or cells: E. coli BL21(DE3), pET11a; conditions: inhibitor 1 µM final; for loss of activity: substrate HTLV-3 MA/CA 0.40–0.43 mM, DMSO control = 100%, n = 2
# Protocol: as §1, §2
# HTLV-1 PR [6] = tested on: HTLV-1 PR; parameters: method as in 2 sources, ref [41] = [41]; PMID 15158589; doi:10.1016/j.jviromet.2004.03.001; 41. Bagossi P. Kádas J. Miklóssy G. Boross P. Weber I.T. Tözsér J. Development of a microtiter plate fluorescent assay for inhibition studies on the HTLV-1 and HIV-1 proteinases J. Virol. Methods 2004 ||| ref [28] = [28]; PMID 15102858; doi:10.1074/jbc.M401868200; 28. Kádas J. Weber I.T. Bagossi P. Miklóssy G. Boross P. Oroszlan S. Tözsér J. Narrow substrate specificity and sensitivity toward ligand-binding site mutations of human T-cell leukemia virus type 1 p; conditions: ref [28]; cited from earlier work
# From the text: (a) Comparison of relative activities determined in the presence of HIV-1 PIs applied in a 1-µM final concentration. For control measurements, reaction mixtures contained no inhibitor. Activity determined in the presence of DMSO was considered to be 100%. Error bars represent SD (n = 2). […] We repeated these experiments in our system for HTLV-2 and HTLV-3 PRs.
# ATLL cells = tested on: ATLL cells; parameters: method as in PMID 16174765; conditions: ATLL cells ex vivo; ref [54]; cited from earlier work
# [7] = tested on: NF-κB transcriptional activation; parameters: method as in PMID 18316517; conditions: ATLL cells; ref [55]; cited from earlier work
# [8] = ASPRV1; ref [51]; cited from earlier work
# Protocol: The dependence of enzyme activity on pH was studied in a 4.5–8.0 range. […] Our results imply that the optimal pH of HTLV-1 PR is higher than it was determined previously by Ha et al. (pH 5.2–5.3). The optimal pH determined for HTLV PRs is similar to the slightly acidic pH optimum of retroviral and retroviral-like proteases, including the HIV-1 PR (pH 4.0–6.0 range), the BLV PR (pH 4.0–6.5 range), ...
# HTLV-1 PR [9] = conditions: HTLV-1 PR, designed and characterized previously; ref [28]; cited from earlier work
# From the text: Table 5 Effects of protease mutations on autoproteolytic activity of HTLV PRs. | column: Self-Processing || We prepared mutant HTLV-2 and HTLV-3 PRs, which contained mutations that were introduced previously to HTLV-1 PR to study its self-processing capability. The rationale behind the former mutation design was to prepare mutant HTLV-1 PRs that contain HIV-1-like residues in the flap region (57th and 59th) or at the active site (37th and 67th). The herein studied enzymes also contained the same mutations in the corresponding positions (Figure 10). All modified residue constitutes a part of substrate binding sites (Table 4).
# T2 sequence (Q4U0X6 431-553): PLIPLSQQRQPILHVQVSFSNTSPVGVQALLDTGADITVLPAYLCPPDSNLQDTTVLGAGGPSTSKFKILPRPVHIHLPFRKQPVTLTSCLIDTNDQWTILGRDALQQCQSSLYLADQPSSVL
# T1 sequence (P03363 447-571): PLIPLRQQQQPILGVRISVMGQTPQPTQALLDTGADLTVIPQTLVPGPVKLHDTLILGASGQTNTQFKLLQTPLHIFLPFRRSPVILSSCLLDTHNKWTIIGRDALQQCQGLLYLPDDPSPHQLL
molecule,measurement,setting,value
CC(C)C[C@@H](CN[C@H](C(=O)N[C@H](C(=O)N[C@@H](CCC(N)=O)C(=O)N1CCC[C@H]1C(=O)N[C@@H](CCCCN)C(=O)O)C(C)C)C(C)C)NC(=O)[C@@H](NC(=O)[C@H](CCCCN)NC(=O)[C@@H](NC(=O)[C@@H](N)CCCCN)[C@@H](C)O)C(C)C [IB-268] (H-[X1]([Val-Lys-Thr-Lys])VQPK-OH),Ki,HTLV-2 PR [1],37 nM
same,Ki,HTLV-3 PR [2],214 nM
CSCC[C@H](NC(=O)[C@@H](NC(=O)[C@@H]1CCCN1C[C@H](CC(C)C)NC(=O)[C@@H](NC(=O)[C@H](CCC(N)=O)NC(=O)[C@@H]1CCCN1C(=O)[C@H](C)N)C(C)C)C(C)C)C(=O)N[C@@H](Cc1c[nH]cn1)C(=O)N1CCC[C@H]1C(=O)O [IB-269] (H-APQV[LeuΨ(CH2N)Pro]VMHP-OH),Ki,HTLV-2 PR [1],12 nM
same,Ki,HTLV-3 PR [2],14 nM
CC(C)CN(C[C@@H](O)[C@H](Cc1ccccc1)NC(=O)O[C@H]1CO[C@H]2OCC[C@H]21)S(=O)(=O)c1ccc(N)cc1 [darunavir],inhibitory effect (in words),HTLV-1 PR [3],highest inhibition
same,inhibitory effect (in words),HTLV-2 PR [4],highest inhibition
same,loss of activity,HTLV-2 PR [4],< 50%
same,inhibitory effect (in words),HTLV-3 PR [5],highest inhibition
same,loss of activity,HTLV-3 PR [5],< 50%
CC(C)(C)NC(=O)[C@@H]1CN(Cc2cccnc2)CCN1C[C@@H](O)C[C@@H](Cc1ccccc1)C(=O)N[C@H]1c2ccccc2C[C@H]1O [indinavir],inhibitory effect (in words),HTLV-1 PR [3],highest inhibition
same,decrease of HTLV-1 PR activity,"HTLV-1 PR [3]; DMSO control = 100%, n = 2",~ 50%
same,inhibition of wild-type HTLV-1 PR (in words),HTLV-1 PR [6],relatively good inhibitors
same,inhibitory effect (in words),HTLV-2 PR [4],highest inhibition
same,loss of activity,HTLV-2 PR [4],< 50%
same,inhibitory effect (in words),HTLV-3 PR [5],highest inhibition
same,loss of activity,HTLV-3 PR [5],< 50%
CC(C)c1nc(CN(C)C(=O)N[C@H](C(=O)N[C@@H](Cc2ccccc2)C[C@H](O)[C@H](Cc2ccccc2)NC(=O)OCc2cncs2)C(C)C)cs1 [ritonavir],inhibitory effect (in words),HTLV-1 PR [3],not an effective inhibitor
same,anti-leukemic activity,ATLL cells,anti-leukemic activity against ATLL cells ex vivo
same,inhibition of NF-κB transcriptional activation,[7],ritonavir-dependent inhibition of NF-κB transcriptional activation
same,inhibitory effect (in words),HTLV-2 PR [4],did not inhibit
same,loss of activity,HTLV-2 PR [4],< 50%
same,inhibitory effect (in words),HTLV-3 PR [5],did not inhibit
same,loss of activity,HTLV-3 PR [5],< 50%
"ASPRV1: human retroviral-like aspartic protease 1 (literature) (protein, UniProt Q53RT3 191-326, looked up) Retroviral-like aspartic …: SMGKGYYLKGKIGKVPVRFLVDSGAQVSVVHPNLWEEVTDGDLDTLQPFENVVKVANGAEMKILGVWDTAVSLGKLKLKAQFLVANASAEEAIIGTDVLQDHNAILDFEHRTCTLKGKKFRLLPVGGSLEDEFDLE",pH optimum,[8],6.27 ± 0.02
"HTLV-1 wild-type: wild-type HTLV-1 PR, self-processing studied previously (protein, UniProt P10274 450-574, looked up, Protease, wild-type HTLV-1 PR, self-processing studied previously) Protease: PVIPLDPARRPVIKAQVDTQTSHPKTIEALLDTGADMTVLPIALFSSNTPLKNTSVLGAGGQTQDHFKLTSLPVLIRLPFRTTPIVLTSCLVDTKNNWAIIGRDALQQCQGVLYLPEAKRPPVIL",self-processing,HTLV-1 PR [9],yes
"HTLV-1 M37D (protein, UniProt P10274 450-574, looked up, variant M37D, Protease) Protease: PVIPLDPARRPVIKAQVDTQTSHPKTIEALLDTGADDTVLPIALFSSNTPLKNTSVLGAGGQTQDHFKLTSLPVLIRLPFRTTPIVLTSCLVDTKNNWAIIGRDALQQCQGVLYLPEAKRPPVIL",self-processing,HTLV-1 PR [9],no

# Reference: PMC7915765, “Biochemical Characterization, Specificity and Inhibition Studies of HTLV-1, HTLV-2, and HTLV-3 Proteases” (Life, 2021)
